{"source": "paper PMC5698418", "about": "(Nature Communications, 2017)", "molecules": {"B1": {"name": "BDNF: recombinant brain-derived neurotrophic factor, 100 ng ml−1 (protein, UniProt P23560 19-247, looked up)", "Neurotrophic factor BDNF …": "APMKEANIRGQGGLAYPGVRTHGTLESVNGPKAGSRGLTSLADTFEHVIEELLDEDQKVRPNEENNKDADLYTSRVMLSSQVPLEPPLLFLLEEYKNYLDAANMSMRVRRHSDPARRGELSVCDSISEWVTAADKKTAVDMSGGTVTVLEKVPVSKGQLKQYFYETKCNPMGYTKEGCRGIDKRHWNSQCRTTQSYVRALTMDSKKRIGWRFIRIDTSCVCTLTIKRGR"}}, "key": {"[1]": {"system": "nuclear Arc in primary cortical neurons", "assay": "Low-throughput nuclear Arc immunofluorescence assay (coverslips, Map2-positive cells)", "type": "cell-based, mouse", "text": "Next, using fluorescent immunocytochemistry we assessed to what extent the observed induction of total Arc protein expression measured by western blotting corresponded to an accumulation of Arc in the nucleus of our cultured neurons. We chose to focus on nuclear Arc at this point based on the assumption that it would provide a robust and easily tractable phenotype for testing a large set of compounds with the help of a quantitative, single-cell level, high-content, image-based screen. […] On the other hand, many but not all of the neurons in cultures that were treated with BDNF for 6 h had high levels of Arc in their nuclei (Fig. 2b). […] Finally, to further evaluate the sensitivity of our method to quantify nuclear Arc expression, we tested four pharmacological inhibitors predicted to prevent BDNF-induced Arc expression. […] These experimental results with known mechanism of action compounds critically guided the design and interpretation of the chemogenomic screen performed next.\n(§1) Indirect immunofluorescence detection of antigens was carried out using cortical neurons cultured on poly-L-lysine/laminin-coated coverslips in 24-well plates at a density of 0.1 × 10^7 per well. After experimental treatment, cells were washed twice with PBS and fixed for 30 min at room temperature with 4% paraformaldehyde in PBS. After fixation, cells were washed twice with PBS, permeabilized with PBST (PBS + 0.25% Triton X-100) for 20 min, blocked in blocking solution (PBS + 5% normal goat serum) for another 30 min, and finally incubated overnight at 4 °C with the first primary antibody in blocking solution. The next day, coverslips were extensively washed with PBS and incubated for 2 h at room temperature in the appropriate fluorophore-conjugated secondary antibody solution (Alexa 488- or Alexa 594-conjugated secondary antibody (Molecular Probes, Invitrogen) in blocking solution). After washing with PBS, the coverslips were incubated again overnight in primary antibody solution for the second antigen, and the procedure for conjugation of the fluorophore-conjugated secondary antibody was repeated as above. Finally, cell nuclei were counterstained with 4′,6-diamidino-2-phenylindole (DAPI), and coverslips were mounted on glass slides with ProLong Antifade reagent (Invitrogen).\nCells cultured on coverslips from three independent biological replicates were imaged with an IN Cell Analyzer 6000 high-performance laser-based confocal imaging system and a ×40 objective (GE Healthcare Life Sciences, Marlborough, MA). Image preparation, assembly, and analysis were performed with ImageJ (NIH) and Photoshop CS. Change in contrast and evenness of the illumination was applied equally to all images presented in the study. The following procedure was used for low-throughput measurements. First, original raw tiff files were opened in ImageJ, the nucleus of all neurons in the image was located based on Map2 immunostaining, then average pixel intensity corresponding to Arc immunofluorescence was measured for a 30-pixel spot positioned at the center of the nuclear compartment. Second, for each measure of Arc nuclear immunofluorescence pixel intensity, a measure of background pixel intensity from the same image channel was acquired and subsequently subtracted from the Arc nuclear immunofluorescence pixel intensity value. Finally, Arc immunofluorescence signal from untreated samples was used to establish an objective threshold (two standard deviations above the nuclear Arc immunofluorescence signal averaged from a representative population of untreated neurons) and allow comparison of nuclear Arc expression between different experimental conditions."}, "Arc mRNA": {"system": "Arc mRNA", "assay": "Arc mRNA by real-time RT-PCR in primary cortical neurons", "type": "cell-based, mouse", "details": "6 h BDNF plus U0126 10 µM or NSC23766 200 µM", "protocol": "After experimental treatment, total RNA was isolated from primary cortical neuron cultures using the TRIzol method (Invitrogen). The concentration of total RNA was measured using a NanoDrop 1000 spectrophotometer (Thermo Fisher Scientific, Rockford, IL) and first-strand complementary DNA (cDNA) was synthesized using the iScript cDNA Synthesis Kit (Bio-Rad, Hercules, CA). Real-time PCRs were performed using gene-specific primers and monitored by quantification of SYBR Green I fluorescence using a Bio-Rad CFX96 Real-Time Detection System. Expression was normalized against Gapdh expression. The relative quantification from at least three biological replicates was performed using the comparative cycle threshold (∆∆CT) method.\nPrimers for real-time reverse transcription PCR experiments were: Arc, 5′-[…]-3′ (forward) and 5′-[…]-3′ (reverse); Map2, 5′-[…]-3′ (forward) and 5′-[…]-3′ (reverse); GluA1, 5′-[…]-3′ (forward) and 5′-[…]-3′ (reverse); GluA2, 5′-[…]-3′ (forward) and 5′-[…]-3′ (reverse); Gapdh, 5′-[…]-3′ (forward) and 5′-[…]-3′ (reverse)."}, "[2]": {"system": "Arc puncta in dendrites of primary cortical neurons", "assay": "Arc puncta along Map2-labeled dendrites (immunocytochemistry)", "type": "cell-based, mouse", "details": "16.7 µM with BDNF, vs untreated and BDNF alone; for BDNF: BDNF alone vs untreated", "text": "Chemical structure of each compound is presented on top. b Graphs show mean (n = 5) Arc/β-actin ratio (±SEM) for cells treated as in a. […] Tukey’s HSD post hoc test, *p < 0.05; **p < 0.01, ***p < 0.005; ****p < 0.0001. […] Representative captures of DIV14 mouse primary cortical neurons from each experimental condition co-immunostained for Arc (red fluorophore) and Map2 (green fluorophore). White arrowheads show examples of discrete Arc puncta. […] Tukey’s HSD post hoc test, *p < 0.05; ***p < 0.005; ****p < 0.0001\nas §1\n(§2) Quantification of surface GluA1 puncta was performed according to the following strategy. First, overlapping digital images of GluA1 and Map2 immunostainings were collected using a Zeiss AxioObserver Z1 inverted microscope and ×63 oil immersion objective. Second, thresholding and segmentation based on the Map2 images was used to remove GluA1 signals outside of dendritic processes. Importantly, the same background/foreground cutoff threshold was used for images of all experimental conditions. Third, the length of dendrites for each image set was measured and recorded. Finally, distinct GluA1 foreground objects along dendrites >5 pixels were counted using the particle analysis tool in ImageJ and presented as the average number of GluA1 puncta per µm of dendrite length for each experimental condition."}, "HDAC2": {"target": "T1, HDAC2 (Homo sapiens, UniProt Q92769)", "T1 construct": "purchased BPS Bioscience (San Diego, CA), contract assay service", "T1 sequence (Q92769 whole entry)": "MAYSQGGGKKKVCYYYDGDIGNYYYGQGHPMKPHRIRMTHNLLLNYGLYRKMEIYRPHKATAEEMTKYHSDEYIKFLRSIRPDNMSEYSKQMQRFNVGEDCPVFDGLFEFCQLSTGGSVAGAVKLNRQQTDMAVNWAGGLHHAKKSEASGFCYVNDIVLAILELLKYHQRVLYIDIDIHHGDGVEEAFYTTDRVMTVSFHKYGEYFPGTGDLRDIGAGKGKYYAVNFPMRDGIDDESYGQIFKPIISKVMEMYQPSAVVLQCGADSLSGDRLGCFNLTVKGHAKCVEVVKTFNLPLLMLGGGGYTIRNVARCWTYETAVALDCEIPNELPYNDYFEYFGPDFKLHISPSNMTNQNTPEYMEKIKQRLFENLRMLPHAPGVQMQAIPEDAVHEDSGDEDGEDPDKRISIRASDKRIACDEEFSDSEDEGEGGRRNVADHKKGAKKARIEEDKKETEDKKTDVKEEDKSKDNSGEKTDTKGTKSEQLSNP", "assay": "Biochemical HDAC assay (BPS Bioscience), HDAC2", "details": "25 µM"}, "HDAC1": {"target": "T2, HDAC1 (Homo sapiens, UniProt Q13547)", "T2 construct": "purchased BPS Bioscience (San Diego, CA), contract assay service", "T2 sequence (Q13547 whole entry)": "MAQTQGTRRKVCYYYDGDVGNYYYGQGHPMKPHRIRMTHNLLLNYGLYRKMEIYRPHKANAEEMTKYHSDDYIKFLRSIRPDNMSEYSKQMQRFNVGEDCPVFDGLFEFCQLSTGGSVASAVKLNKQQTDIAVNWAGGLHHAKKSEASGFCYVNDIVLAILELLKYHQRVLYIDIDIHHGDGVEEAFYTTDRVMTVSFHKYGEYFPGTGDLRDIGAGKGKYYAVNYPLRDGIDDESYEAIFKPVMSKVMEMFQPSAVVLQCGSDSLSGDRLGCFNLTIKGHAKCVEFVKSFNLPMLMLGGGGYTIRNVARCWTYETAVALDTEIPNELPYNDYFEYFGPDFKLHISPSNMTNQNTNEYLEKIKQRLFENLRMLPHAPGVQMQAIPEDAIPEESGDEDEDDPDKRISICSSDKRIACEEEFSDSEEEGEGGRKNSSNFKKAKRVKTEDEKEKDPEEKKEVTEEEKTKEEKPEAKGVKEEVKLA", "assay": "Biochemical HDAC assay (BPS Bioscience), HDAC1", "details": "25 µM"}, "[3]": {"system": "BDNF-induced nuclear Arc expression in primary cortical neurons", "assay": "Chemogenomic screen: high-content image-based assay of BDNF-induced nuclear Arc expression (96-well)", "type": "cell-based, mouse", "summary_of_the_method": "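DIV13 mouse primary cortical neurons (30,000 cells/well) are treated with compound at 16.7 µM and BDNF, in three biological replicates. Arc and acetyl-H3K9 are immunostained and imaged at ×40, and nuclear Arc signal is quantified automatically using acetyl-H3K9 as the nuclear mask.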"}, "surface GluA1": {"system": "surface GluA1", "assay": "Surface AMPAR (GluA1) imaging along dendrites", "type": "cell-based, mouse", "details": "16.7 µM, 6 h with BDNF, vs untreated and BDNF alone; for BDNF: BDNF alone vs baseline", "protocol": "Our procedure to label surface AMPARs containing the GluA1 subunit was adapted from two reports[14],[61]. Precisely, DIV14 primary cortical neurons cultured on coverslips were rinsed once with room temperature PBS^MC (PBS containing 0.5 mM CaCl2, 1 mM MgCl2, and 4% sucrose). Live cells were then incubated for 30 min at room temperature with GluA1 primary antibody solution (PBS^MC with antibody against the extracellular N-terminus of GluA1 (EMD Millipore Corp, clone RH95, 5.0 µg ml^−1)). Next, cells were rinsed twice with ice-cold PBS^MC followed by fixation with 4% paraformaldehyde + 4% sucrose solution for 15 min at room temperature. After fixation, neurons were washed with regular PBS and then incubated overnight with Map2 primary antibody solution (PBS with 0.125% Triton X-100, 5% normal goat serum, and anti-Map2 antibody) to label dendrites. Next day, coverslips were washed with PBS, incubated with appropriate secondary antibodies for 1 h at room temperature, and finally mounted on glass slides with ProLong Antifade reagent (Invitrogen).\nas §2"}, "acetyl-H3K9": {"system": "acetyl-H3K9", "assay": "Acetyl-H3K9 immunofluorescence in neuronal nuclei (multiplexed in screen)", "type": "cell-based, mouse", "protocol": "To increase the throughput of our pharmacological screening for modulators of Arc, the above mentioned assay was adapted to cultures of mouse primary cortical neurons in 96-well plates.\nScreening of compounds in the chemogenomic library was carried out using DIV13 primary forebrain cortical neurons cultured on poly-L-lysine/laminin-coated 96-well plates (Ibidi USA, Madison, WI). Cells were seeded at a density of 30,000 cells per well and treated with the compound library and BDNF according to the experimental design presented in Fig. 3a. After experimental treatment, cells were processed for Arc and acetyl-H3K9 immunocytochemistry according to the protocol described above. Both antigens (Arc and acetyl-H3K9) were imaged using an IN Cell Analyzer 6000 imaging system and a ×40 objective. […] High-throughput quantification of nuclear Arc immunofluorescence signal was performed in a similar fashion than the low-throughput procedure described above but with the exception that acetyl-H3K9 was used as a nuclear mask to guide the automated quantification of nuclear Arc immunofluorescence signal."}, "HDAC3": {"target": "T3, HDAC3 (Homo sapiens, UniProt O15379)", "T3 construct": "purchased BPS Bioscience (San Diego, CA), contract assay service", "T3 sequence (O15379 whole entry)": "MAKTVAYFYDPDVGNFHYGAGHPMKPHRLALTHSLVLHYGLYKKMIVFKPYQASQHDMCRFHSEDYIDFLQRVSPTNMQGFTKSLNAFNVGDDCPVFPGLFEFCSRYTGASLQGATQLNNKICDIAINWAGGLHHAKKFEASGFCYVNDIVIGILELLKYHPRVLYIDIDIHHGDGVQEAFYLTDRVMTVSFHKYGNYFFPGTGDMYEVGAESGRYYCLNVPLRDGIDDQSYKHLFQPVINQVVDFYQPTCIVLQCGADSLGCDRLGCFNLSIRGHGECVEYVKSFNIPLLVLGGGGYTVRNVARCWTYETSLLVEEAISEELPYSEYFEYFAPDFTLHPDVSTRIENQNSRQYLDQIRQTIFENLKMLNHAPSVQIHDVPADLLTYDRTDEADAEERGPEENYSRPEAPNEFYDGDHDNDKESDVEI", "T3 sequence (Q9Y618 395-489 partner limits assumed)": "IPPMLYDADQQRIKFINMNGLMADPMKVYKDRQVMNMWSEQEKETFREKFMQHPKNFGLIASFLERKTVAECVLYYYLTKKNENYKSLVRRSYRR", "assay": "Biochemical HDAC assay (BPS Bioscience), HDAC3", "details": "25 µM"}, "Arc protein": {"system": "Arc protein", "assay": "Western blot of total Arc protein in primary cortical neurons", "type": "cell-based, mouse", "details": "6 h; BDNF 100 ng ml−1 or 4AP 40 µM + Bic 50 µM", "procedure": "Forebrains of E16.5 C57BL/6 mouse embryos were dissected and then dissociated in trypsin solution for 15 min followed by three washes with phosphate-buffered saline (PBS). Single-cell suspension was achieved by gentle pipet trituration. Neurons were seeded in poly-L-lysine/laminin-coated six-well plates at a density of 2 × 10^6 per well and maintained in neurobasal medium containing B27 supplement (2%, Invitrogen, Grand Island, NY), penicillin (50 units ml^−1, Invitrogen), streptomycin (50 µg ml^−1, Invitrogen), and glutamine (1 mM, Sigma). For experiments involving BDNF (EMD Millipore Corps, Billerica, MA), the stock solution (2 ng µl^−1 in water) was added directly to the culture medium at a final concentration of 100 ng ml^−1 for the indicated period of time.\nFor western blot analyses, cells were collected by scraping in ice-cold radioimmunoprecipitation assay (RIPA) buffer (50 mM Tris-HCl (pH 8.0), 300 mM NaCl, 0.5% Igepal-630, 0.5% deoxycholic acid, 0.1% SDS, 1 mM EDTA) supplemented with a cocktail of protease inhibitors (Complete Protease Inhibitor without EDTA, Roche Applied Science, Indianapolis, IN) and phosphatase inhibitors (phosphatase inhibitor cocktail A, Santa Cruz Biotechnology). One volume of 2× Laemmli buffer (100 mM Tris-HCl (pH 6.8), 4% SDS, 0.15% bromophenol blue, 20% glycerol, 200 mM β-mercaptoethanol) was added and the extracts were boiled for 5 min. Samples were adjusted to an equal concentration after protein concentrations were determined using the BCA assay (Pierce, Thermo Fisher Scientific). Lysates were separated using SDS–PAGE and transferred to a nitrocellulose membrane. After transfer, the membrane was blocked in TBST (Tris-buffered saline + 0.1% Tween 20) supplemented with 5% nonfat powdered milk and probed with the indicated primary antibody at 4 °C overnight. After washing with TBST, the membrane was incubated with the appropriate secondary antibody and visualized using enhanced chemiluminescence (ECL) reagents according to the manufacturer’s guidelines (Pierce, Thermo Fisher Scientific).\nThe following procedure was used to quantify western blots. First, equal quantity of protein lysate was analyzed by SDS–PAGE for each biological replicate. Second, the exposure time of the film to the ECL chemiluminescence was the same for each biological replicate. Third, all the exposed films were scanned on a Brother MFC-J485DW scanner in grayscale at a resolution of 300 dpi. Fourth, the look-up table (LUT) of the scanned tiff images was inverted and the intensity of each band was individually measured using the selection tool and the histogram function in Adobe Photoshop CC 2015 software. […]"}}}
{"molecule": "N#CC(=C(/N)Sc1ccccc1N)/C(C#N)=C(/N)Sc1ccccc1N", "note": "[U0126]", "values": [{"measurement": "effect on BDNF-induced increase of nuclear Arc", "setting": "[1]; co-treated with BDNF 6 h, k252a 100 nM, ActD 2 ng ml−1, CHX 50 µg ml−1, U0126 10 µM", "result": "effectively prevented the increase of nuclear Arc"}, {"measurement": "effect on BDNF-induced Arc mRNA expression (RT-qPCR)", "setting": "Arc mRNA", "result": "prevented BDNF-induced Arc expression"}]}
{"molecule": "CC(=O)Nc1ccc(C(=O)Nc2ccccc2N)cc1", "note": "[CI-994]", "values": [{"measurement": "number of Arc puncta in dendritic projections", "setting": "[2]", "result": "significantly greater number of Arc puncta"}, {"measurement": "inhibitory activity toward HDAC2", "setting": "HDAC2", "result": "potent inhibition"}, {"measurement": "inhibitory activity toward HDAC1", "setting": "HDAC1", "result": "potent inhibition"}, {"measurement": "occurrence of neuronal nuclei with above threshold nuclear Arc immunofluorescence signal, factor in relation to control (DMSO plus BDNF)", "setting": "[3]; 16.7 µM, BDNF", "result": "≥ 1.5"}, {"measurement": "Percentage of cell with nuclear Arc immunostaining above 2σ threshold", "setting": "[3]; chemogenomic (SMART) screen, BDNF-induced nuclear Arc expression, primary cortical neurons, BDNF control 19.5", "result": 29.1, "unit": "%"}, {"measurement": "surface GluA1 puncta per dendrite µm", "setting": "surface GluA1", "result": "significant decrease in surface GluA1 levels"}, {"measurement": "impact on acetyl-H3K9 immunofluorescence (Z-score)", "setting": "acetyl-H3K9; screen, 16.7 µM", "result": "strong impact"}, {"measurement": "inhibitory activity toward HDAC3", "setting": "HDAC3", "result": "potent inhibition"}]}
{"molecule": "CCN(CC)CCCC(C)Nc1nc(C)cc(Nc2ccc3nc(C)cc(N)c3c2)n1", "note": "(centres unmarked) [NSC23766]", "values": [{"measurement": "effect on BDNF-induced Arc mRNA expression (RT-qPCR)", "setting": "Arc mRNA", "result": "prevented BDNF-induced Arc expression but not Rac1 inhibition by NSC23766"}]}
{"molecule": "B1", "values": [{"measurement": "neurons with Arc-specific nuclear average pixel intensity above threshold (> 2σ of untreated)", "setting": "[1]; BDNF 100 ng ml−1, 6 h, n = 331 neurons", "result": 17.5, "unit": "%"}, {"measurement": "neuronal nuclei with above threshold average nuclear Arc signal (> 2σ)", "setting": "[1]; BDNF 24 h, n = 334", "result": 4.2, "unit": "%"}, {"measurement": "number of Arc puncta in dendritic projections", "setting": "[2]", "result": "did not observe a significant difference"}, {"measurement": "surface GluA1 puncta per dendrite µm", "setting": "surface GluA1", "result": "did not influence, in one way or the other, the number of GluA1 puncta"}, {"measurement": "acetyl-H3K9 immunofluorescence intensity levels in primary cortical neurons", "setting": "acetyl-H3K9; BDNF 6 h", "result": "unaffected"}, {"measurement": "Arc protein abundance vs untreated control (western blot)", "setting": "Arc protein", "result": "significantly more Arc protein"}]}
